The nature of experiment [1]: Dissociation constant of [3H]DPCPX binding to adenosine A1 receptor (AR) at 200 nM.
The nature of experiment [2]: Dissociation constant of [3H]DPCPX binding to adenosine A1 receptor (AR) at 5 nM.
The nature of experiment [3]: Dissociation constant of [3H]DPCPX binding to adenosine A1 receptor (AR) at 100 nM.
A short description of experiment [4]: Dissociation constant of [3H]DPCPX binding to adenosine A1 receptor (AR) at 0.05 nM.
The nature of experiment [5]: Dissociation constant of [3H]-DPCPX binding to adenosine A1 receptor (AR) at 0.1 nM.
Experiment [6] in a line: Dissociation constant of [3H]DPCPX binding to adenosine A1 receptor(AR) at 0.1 nM.
Experiment [7] in a line: Dissociation constant of [3H]-DPCPX binding to adenosine A1 receptor(AR) at 0.05 nM.

SMILES strings stand for the structures.

Here are results for five molecules from BindingDB's records for doi:10.1021/jm000181f (Deakin University, 2001).

In the case of `CCCn1c(=O)c2[nH]c(C3CCCCC3)nc2n(Cc2ccc(S(=O)(=O)F)cc2)c1=O` [4-(8-Cyclohexyl-2,6-dioxo-1-propyl-1,2,6,7-tetrahydro-purin-3-ylmethyl)-benzenesulfonyl fluoride], in experiment [1], the Kd (usually the free concentration of one partner at which half of the binding sites on the other are occupied at equilibrium, for simple one-to-one binding) was found to be 0.32 nM.

Turning to `CCCn1c(=O)c2[nH]c(C3CCCCC3)nc2n(CCCc2ccc(S(=O)(=O)F)cc2)c1=O` [4-[3-(8-Cyclohexyl-2,6-dioxo-1-propyl-1,2,6,7-tetrahydro-purin-3-yl)-propyl]-benzenesulfonyl fluoride], in experiment [1], the Kd stood at 0.37 nM.

`CCCn1c(=O)c2[nH]c(C3CCCCC3)nc2n(CCCNC(=O)c2ccc(S(=O)(=O)F)cc2)c1=O` [4-[3-(8-Cyclohexyl-2,6-dioxo-1-propyl-1,2,6,7-tetrahydro-purin-3-yl)-propylcarbamoyl]-benzenesulfonyl fluoride]: the Kd in experiment [2] was 0.37 nM; in experiment [3] it was 0.34 nM; in experiment [4] it was 0.28 nM; in experiment [5], 0.27 nM.

As to `CCCn1c(=O)c2[nH]c(C3CCCC3)nc2n(CCCNC(=O)c2ccc(S(=O)(=O)F)cc2)c1=O` [4-[3-(8-Cyclopentyl-2,6-dioxo-1-propyl-1,2,6,7-tetrahydro-purin-3-yl)-propylcarbamoyl]-benzenesulfonyl fluoride], the figures for the Kd in experiment [6] and in experiment [7] were 0.24 nM and 0.26 nM, respectively.

Turning to `CCCn1c(=O)c2[nH]c(C3CCCCC3)nc2n(CCCCCc2ccc(S(=O)(=O)F)cc2)c1=O` [4-[5-(8-Cyclohexyl-2,6-dioxo-1-propyl-1,2,6,7-tetrahydro-purin-3-yl)-pentyl]-benzenesulfonyl fluoride], the dissociation constant Kd in experiment [1] was found to be 0.81 nM.
